# Data reported in PMC9391200, “Charge-based interactions through peptide position 4 drive diversity of antigen presentation by human leukocyte antigen class I molecules” (PNAS Nexus, 2022).
# Assays:
# [1] = target: T1, HLA-A*24:02 (Homo sapiens, UniProt P04439, D101N/D140Y/D185E/E176V/E190D/F33S/G103R/G107R/I119L/I121M/I306V/K335N/L105A/L180Q/L300P/N151K/N90K/Q86E/Q94H/R106L/R138H/R89G/T104I/T345S/V100E/W191G/Y123F); experiment: Peptide stability assay on WT HLA-A*24:02 (urea denaturation, W6/32 ELISA); format: binding; details: biotinylated A*24:02 refolded with excess peptide, incubated with 0, 2, 4 or 6 M urea, relative to reference peptide TYTQDFNKF (stability index 100%), result in words
# Excerpt: (§1) All HLA-A*02:01- and A*24:02-restricted peptides used in the study were purchased from Genscript at purity of > 80% with quality control by reverse-phase HPLC and mass spectrometry (SC1208). Recombinant HLA-A*02:01 and HLA-A*24:02 molecules were made and re-folded as described elsewhere ([83]). Conformation-dependent W6/32 antibodies used in these assays were produced in vitro from hybridoma cell lines (Integra, Chur, Switzerland). All A*02:01 and A*24:02 binding assays were done as described previously ([83]). In brief, streptavidin donor beads (PerkinElmer, 6760002) and acceptor beads (PerkinElmer, 6762001) conjugated to W6/32 were incubated with A*02:01 or A*24:02 that had been preincubated with varying peptide concentrations. Plates were read by PerkinElmer EnVision and data was analyzed using GraphPad Prism. Peptide stability assays were performed as described previously ([84]). In brief, biotinylated A*02:01 and A*24:02 molecules were refolded with excess peptide then incubated with 0, 2, 4, or 6 M urea. Nondenatured peptides were detected by W6/32 staining using ELISA as described previously ([85]). Stability was calculated as a percentage relative to a reference known binder peptide with an assigned stability index of 100%. […] was used as the reference peptide for A*02:01 and TYTQDFNKF was used as the reference peptide for A*24:02 in both the binding and stability assays.
# [2] = target: T1, HLA-A*24:02; experiment: Peptide binding assay on WT HLA-A*24:02 (W6/32 donor/acceptor bead assay); details: recombinant HLA-A*24:02 preincubated with varying peptide concentrations; streptavidin donor beads and W6/32-conjugated acceptor beads; EnVision read-out; reference peptide TYTQDFNKF; result in words
# Excerpt: as §1
Sequence,HLA-A*24:02/peptide complex stability [1],peptide binding to WT A*24:02 [2]
KFKDNVILL [p1 lysine-substituted …],increased,–
QFKDNVILL [native A*24:02-restricted peptide with subdominant anchors F2 and LΩ],–,relatively poor binding
TFSDEAVHF,–,weak-binding
VYGFVRACL,–,strong-binding
